Experimental findings from BindingDB's records for patent US9192603 (Vanderbilt University, 2015) are described below.

Each structure is given as a SMILES string. Some results are limits rather than exact numbers.

In the experiment the target is Metabotropic glutamate receptor 4 (Homo sapiens, UniProt Q14833). Kind of experiment: Receptor Activity Assay. The procedure: The disclosed compounds and compositions can be evaluated for their ability to act as a potentiator of metabotropic glutamate receptor activity, in particular mGluR4 activity, by any suitable known methodology known in the art. For example, Chinese Hamster Ovary (CHO) cells transfected with human mGluR4 or HEK cells co-transfected with rat mGluR4 and the G-protein regulated Inwardly Rectifying Potassium channel (GIRK) were plated in clear bottom assay plates for assay in a Hamamatsu FDSS Fluorometric Plate Reader. The cells were loaded with either a Ca2+-sensitive fluorescent dye or the thallium responsive dye and the plates were washed and placed into a suitable kinetic plate reader. For human mGluR4 assays, a fluorescence baseline was established for 3-5 seconds, the disclosed compounds were then added to the cells, and the response in cells was measured.
Sequence of Metabotropic glutamate receptor 4 (Q14833 whole entry): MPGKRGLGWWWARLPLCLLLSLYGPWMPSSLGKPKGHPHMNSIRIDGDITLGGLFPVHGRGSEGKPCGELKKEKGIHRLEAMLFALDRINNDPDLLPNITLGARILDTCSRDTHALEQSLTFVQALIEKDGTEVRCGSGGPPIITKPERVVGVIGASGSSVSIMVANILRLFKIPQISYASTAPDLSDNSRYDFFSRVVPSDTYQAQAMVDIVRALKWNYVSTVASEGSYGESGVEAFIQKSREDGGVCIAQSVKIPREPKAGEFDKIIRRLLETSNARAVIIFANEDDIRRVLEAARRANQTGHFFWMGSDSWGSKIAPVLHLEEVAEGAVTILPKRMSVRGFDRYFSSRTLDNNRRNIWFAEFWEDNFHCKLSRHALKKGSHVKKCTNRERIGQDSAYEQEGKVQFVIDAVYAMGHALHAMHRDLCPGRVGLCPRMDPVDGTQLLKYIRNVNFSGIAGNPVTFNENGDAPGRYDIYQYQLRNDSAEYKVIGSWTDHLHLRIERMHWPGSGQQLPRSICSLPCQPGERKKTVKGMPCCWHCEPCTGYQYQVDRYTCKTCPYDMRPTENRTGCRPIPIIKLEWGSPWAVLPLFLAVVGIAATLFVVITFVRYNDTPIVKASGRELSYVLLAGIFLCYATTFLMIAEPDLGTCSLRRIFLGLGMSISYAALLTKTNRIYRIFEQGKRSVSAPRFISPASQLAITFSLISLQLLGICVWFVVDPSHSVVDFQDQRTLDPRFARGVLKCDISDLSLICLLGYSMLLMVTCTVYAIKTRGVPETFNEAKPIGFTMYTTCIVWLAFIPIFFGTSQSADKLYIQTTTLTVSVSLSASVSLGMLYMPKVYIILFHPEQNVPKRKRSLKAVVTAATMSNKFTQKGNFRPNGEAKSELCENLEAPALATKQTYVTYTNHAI

As for `CC(C)c1nc(NC(=O)c2ccccn2)sc1S(=O)(=O)Cc1ccc(F)cc1F` [US9192603, 65], the EC50 (in general, the concentration at which the effect is half-maximal) is more than 10 µM.
